Results: patent publication US20230192700A1, “PYRAZOLOPYRAZINES ACTING ON CANCERS VIA INHIBITION OF CDK12” (Bayer Aktiengesellschaft, priority 2020, published 2023)
Read-outs that look alike come from different tables or passages of the source.

Experiments:
[1] = system: CAL-120 human breast adenocarcinoma cells; assay: Proliferation assay CAL-120 (crystal violet); type: cell-based; conditions: CAL-120 cells, 4 days, median, read-out: Prolif-CAL-120— IC50 - [mol/l] (median)
Procedure: (§1) 4. Proliferation assay: MDA-MB-231, CAL-120
(§2) Human tumour cells were originally obtained from the American Type Culture Collection (ATCC), or from the Deutsche Sammlung von Mikroorganismen and Zellkulturen (DSMZ, German Collection of Microorganisms and Cell Cultures). Cultivated tumour cells (CAL-120, human breast adenocarcinoma cells, DSMZ ACC-459; MDA-M B-231, human breast cancer cells, ATCC HTB-26) were plated at a density of 4,000 cells/well in a 96-well multititer plate in 200 microL of their respective growth medium supplemented 10% fetal calf serum. After 24 hours, the cells of one plate (zero-point plate) were stained with crystal violet (see below), while the medium of the other plates was supplemented with the test substances in various concentrations (0 micromol/L, as well as in the range of 0.01-10 micromol/L; the final concentration of the solvent dimethyl sulfoxide was adjusted to 0.1%) using a Tecan HP D300 Digital Dispenser. The cells were incubated for 4 days in the presence of test substances. Cell proliferation was determined by staining the cells with crystal violet: the cells were fixed by adding 20 microL/measuring point of an 11% glutaric aldehyde solution for 15 minutes at room temperature. After three washing cycles of the fixed cells with water, the plates were dried at room temperature. The cells were stained by adding 100 microL/measuring point of a 0.1% crystal violet solution (pH 3.0). After three washing cycles of the stained cells with water, the plates were dried at room temperature. The dye was dissolved by adding 100 microL/measuring point of a 10% acetic acid solution. The extinction was determined by photometry at a wavelength of 595 nm. The change of cell number, in percent, was calculated by normalization of the measured values to the extinction values of the zero-point plate(=0%) and the extinction of the untreated (0 μM) cells(=100%). The IC50 values (inhibitory concentration at 50% of maximal effect) were determined by means of a 4 parameter fit.

[2] = system: MDA-MB-231 human breast cancer cells; assay: Proliferation assay MDA-MB-231 (crystal violet); type: cell-based; conditions: MDA-MB-231 cells, 4 days, median, read-out: Prolif-MDA MB231 IC50 - [mol/l] (median)
Procedure: as §1, §2

| SMILES | IC50 ([1]; Homo sapiens, CAL-120, 96 h) | IC50 ([2]; Homo sapiens, MDA-MB-231, 96 h) | IC50 [1] | IC50 [2] |
| --- | --- | --- | --- | --- |
| CC(C)(C)OC(=O)N1CCC(n2nc(NCc3nc4ccccc4[nH]3)c3ncc(C4CC4)nc32)CC1 [Example 11, tert-butyl 4-(3-{[(1H-benzimidazol-2-yl)methyl]amino}-6-cyclopropyl-1H-pyrazolo[3,4-b]pyrazin-1-yl)piperidine-1-carboxylate] | 0.0814 µM | 0.176 µM |  |  |
| CN1CCCC(n2nc(NCc3nc4ccccc4[nH]3)c3ncc(C4CC4)nc32)CC1 (single isomer, unassigned) [Example 38, (−) or (+)-N-[(1H-benzimidazol-2-yl)methyl]-6-cyclopropyl-1-[(4R*)-1-methylazepan-4-yl]-1H-pyrazolo[3,4-b]pyrazin-3-amine] |  |  | 0.00985 µM | 0.0465 µM |
| c1ccc2[nH]c(CNc3nn(C4CCOC4)c4nc(C5CC5)cnc34)nc2c1 (single isomer, unassigned) [Example 18, (-) or (+) -N-[(1H-benzimidazol-2-yl)methyl]-6-cyclopropyl-1-[oxolan-3-yl]-1H-pyrazolo[3,4-b]pyrazin-3-amine] |  |  | 0.0719 µM | 0.151 µM |
| CN1CCC(n2nc(NCc3nc4cc(F)c(F)cc4[nH]3)c3ncc(C4CC4)nc32)CC1 [Example 30, 6-cyclopropyl-N-[(5,6-difluoro-1H-benzimidazol-2-yl)methyl]-1-(1-methylpiperidin-4-yl)-1H-pyrazolo[3,4-b]pyrazin-3-amine] | 0.0134 µM | 0.0299 µM |  |  |
| CC(C)n1nc(NCc2nc3ccccc3[nH]2)c2ncc(C3CC3)nc21 [Example 14, N-[(1H-benzimidazol-2-yl)methyl]-6-cyclopropyl-1-(propan-2-yl)-1H-pyrazolo[3,4-b]pyrazin-3-amine] | 0.0964 µM |  |  |  |
| CC(CCN(C)C)n1nc(NCc2nc3ccccc3[nH]2)c2ncc(C3CC3)nc21 (single isomer, unassigned) [Example 63, (+) or (−)-N-[(1H-benzimidazol-2-yl)methyl]-6-cyclopropyl-1-[4-(dimethylamino)butan-2-yl]-1H-pyrazolo[3,4-b]pyrazin-3-amine] |  |  | 0.878 µM | 1.78 µM |
| CC(CCN(C)C)n1nc(NCc2nc3ccccc3[nH]2)c2ncc(C3CC3)nc21 (racemic) [Example 62, (±)-N-[(1H-benzimidazol-2-yl)methyl]-6-cyclopropyl-1-[4-(dimethylamino)butan-2-yl]-1H-pyrazolo[3,4-b]pyrazin-3-amine] | 0.301 µM | 0.873 µM |  |  |
| CN1CCC(n2nc(NCc3nc4cc(SC(F)(F)F)ccc4[nH]3)c3ncc(C4CC4)nc32)CC1 [Example 27, 6-cyclopropyl-1-(1-methylpiperidin-4-yl)-N-({5-[(trifluoromethyl)sulfanyl]-1H-benzimidazol-2-yl}methyl)-1H-pyrazolo[3,4-b]pyrazin-3-amine] | 0.266 µM |  |  |  |
| CN1CCC(n2nc(NCc3nc4ccccc4[nH]3)c3ncc(C4CC4)nc32)C1 (racemic) [Example 35, (±)-N-[(1H-benzimidazol-2-yl)methyl]-6-cyclopropyl-1-(1-methylpyrrolidin-3-yl)-1H-pyrazolo[3,4-b]pyrazin-3-amine] | 0.0117 µM | 0.0595 µM |  |  |
| CN1CCC(n2nc(NCc3nc4ccccc4[nH]3)c3ncc(C4CC4)nc32)C1 (single isomer, unassigned) [Example 79, (−) or (+)-N-[(1H-benzimidazol-2-yl)methyl]-6-cyclopropyl-1-(1-methylpyrrolidin-3-yl)-1H-pyrazolo[3,4-b]pyrazin-3-amine] |  |  | 0.0714 µM | 0.217 µM |
| CC(CCN(C)C)n1nc(NCc2nc3ccccc3[nH]2)c2ncc(C3CC3)nc21 (single isomer, unassigned) [Example 64, (−) or(+)-N-[(1H-benzimidazol-2-yl)methyl]-6-cyclopropyl-1-[4-(dimethylamino)butan-2-yl]-1H-pyrazolo[3,4-b]pyrazin-3-amine] |  |  | 0.295 µM | 0.536 µM |
| Cc1cccc2[nH]c(CNc3nn(C4CCOCC4)c4nc(C5CC5)cnc34)nc12 [Example 33, 6-cyclopropyl-N-[(4-methyl-1H-benzimidazol-2-yl)methyl]-1-(oxan-4-yl)-1H-pyrazolo[3,4-b]pyrazin-3-amine] | 0.0225 µM | 0.037 µM |  |  |
| c1ccc2[nH]c(CNc3nn(C4CCOC4)c4nc(C5CC5)cnc34)nc2c1 (single isomer, unassigned) [Example 17, (+) or (−)-N-[(1H-benzimidazol-2-yl)methyl]-6-cyclopropyl-1-(oxolan-3-yl)-1H-pyrazolo[3,4-b]pyrazin-3-amine] | 0.0703 µM | 0.137 µM |  |  |
| FC1(F)CCC(n2nc(NCc3nc4ccccc4[nH]3)c3ncc(C4CC4)nc32)CC1 [Example 36, N-[(1H-benzimidazol-2-yl)methyl]-6-cyclopropyl-1-(4,4-difluorocyclohexyl)-1H-pyrazolo[3,4-b]pyrazin-3-amine] | 0.0488 µM | 0.114 µM |  |  |
| OCCCn1nc(NCc2nc3ccccc3[nH]2)c2ncc(C3CC3)nc21 [Example 60, 3-(3-{[(1H-benzimidazol-2-yl)methyl]amino}-6-cyclopropyl-1H-pyrazolo[3,4-b]pyrazin-1-yl)propan-1-ol] | 0.128 µM | 0.235 µM |  |  |
| CN1CCC(n2nc(NCc3nc4ccccc4[nH]3)c3ncc(C4CC4)nc32)C1 (single isomer, unassigned) [Example 78, (+) or (−)-N-[(1H-benzimidazol-2-yl)methyl]-6-cyclopropyl-1-(1-methylpyrrolidin-3-yl)-1H-pyrazolo[3,4-b]pyrazin-3-amine] |  |  | 0.0112 µM | 0.0347 µM |
| COCCCn1nc(NCc2nc3ccccc3[nH]2)c2ncc(C3CC3)nc21 [Example 61, N-[(1H-benzimidazol-2-yl)methyl]-6-cyclopropyl-1-(3-methoxypropyl)-1H-pyrazolo[3,4-b]pyrazin-3-amine] | 0.0606 µM | 0.335 µM |  |  |

Other lines, results leading:

| IC50 ([1]; Homo sapiens, CAL-120, 96 h) | IC50 ([2]; Homo sapiens, MDA-MB-231, 96 h) | IC50 [1] | IC50 [2] | SMILES |
| --- | --- | --- | --- | --- |
| 0.00793 µM | 0.0113 µM |  |  | Cc1c(Cl)ccc2[nH]c(CNc3nn(C4CCN(C)CC4)c4nc(C5CC5)cnc34)nc12 [Example 21, N-[(5-chloro-4-methyl-1H-benzimidazol-2-yl)methyl]-6-cyclopropyl-1-(1-methylpiperidin-4-yl)-1H-pyrazolo[3,4-b]pyrazin-3-amine] |
| 0.0101 µM | 0.0222 µM |  |  | Cc1c(F)ccc2[nH]c(CNc3nn(C4CCN(C)CC4)c4nc(C5CC5)cnc34)nc12 [Example 26, 6-cyclopropyl-N-[(5-fluoro-4-methyl-1H-benzimidazol-2-yl)methyl]-1-(1-methylpiperidin-4-yl)-1H-pyrazolo[3,4-b]pyrazin-3-amine] |
| 0.00975 µM | 0.0145 µM |  |  | CN1CCC(n2nc(NCc3nc4cc(Cl)c(F)cc4[nH]3)c3ncc(C4CC4)nc32)CC1 [Example 29, N-[(5-chloro-6-fluoro-1H-benzimidazol-2-yl)methyl]-6-cyclopropyl-1-(1-methylpiperidin-4-yl)-1H-pyrazolo[3,4-b]pyrazin-3-amine] |
| 0.00709 µM | 0.0182 µM |  |  | CN1CCC(n2nc(NCc3nc4c(Cl)c(F)ccc4[nH]3)c3ncc(C4CC4)nc32)CC1 [Example 31, N-[(4-chloro-5-fluoro-1H-benzimidazol-2-yl)methyl]-6-cyclopropyl-1-(1-methylpiperidin-4-yl)-1H-pyrazolo[3,4-b]pyrazin-3-amine] |
| 0.00727 µM | 0.0144 µM |  |  | CN1CCC(n2nc(NCc3nc4c(Br)cccc4[nH]3)c3ncc(C4CC4)nc32)CC1 [Example 20, N-[(4-bromo-1H-benzimidazol-2-yl)methyl]-6-cyclopropyl-1-(1-methylpiperidin-4-yl)-1H-pyrazolo[3,4-b]pyrazin-3-amine] |
| 0.00954 µM | 0.0199 µM |  |  | Cc1ccc2[nH]c(CNc3nn(C4CCN(C)CC4)c4nc(C5CC5)cnc34)nc2c1C [Example 28, 6-cyclopropyl-N-[(4,5-dimethyl-1H-benzimidazol-2-yl)methyl]-1-(1-methylpiperidin-4-yl)-1H-pyrazolo[3,4-b]pyrazin-3-amine] |
| 0.00421 µM | 0.00802 µM |  |  | CN1CCC(n2nc(NCc3nc4cc(Cl)ccc4[nH]3)c3ncc(C4CC4)nc32)CC1 [Example 22, N-[(5-chloro-1H-benzimidazol-2-yl)methyl]-6-cyclopropyl-1-(1-methylpiperidin-4-yl)-1H-pyrazolo[3,4-b]pyrazin-3-amine] |
| 0.00678 µM | 0.0412 µM |  |  | CN1CCC(n2nc(NCc3nc4c(F)c(F)ccc4[nH]3)c3ncc(C4CC4)nc32)CC1 [Example 9, 6-cyclopropyl-N-[(4,5-difluoro-1H-benzimidazol-2-yl)methyl]-1-(1-methylpiperidin-4-yl)-1H-pyrazolo[3,4-b]pyrazin-3-amine] |
